Consider three molecules from ChEMBL document CHEMBL1137456, “The synthesis and biological activity of pentafluorosulfanyl analogs of fluoxetine, fenfluramine, and norfenfluramine” (Bioorg Med Chem, 2007).

What all share (format): cell-based
Common to all, as to conditions: COS-7

For assay [1], the target named is 5-hydroxytryptamine receptor 2B (Homo sapiens) (UniProt P41595). Briefly: Inhibition of human 5HT2B expressed in COS7 cells at 10 uM.
For assay [2], the target named is 5-hydroxytryptamine receptor 1D (Homo sapiens) (UniProt P28221). Briefly: Inhibition of human 5HT1D expressed in COS7 cells at 10 uM.
Assay [3] concerns the target T1, 5-hydroxytryptamine receptor 3A (Homo sapiens) (UniProt P46098).
T1 sequence (whole entry): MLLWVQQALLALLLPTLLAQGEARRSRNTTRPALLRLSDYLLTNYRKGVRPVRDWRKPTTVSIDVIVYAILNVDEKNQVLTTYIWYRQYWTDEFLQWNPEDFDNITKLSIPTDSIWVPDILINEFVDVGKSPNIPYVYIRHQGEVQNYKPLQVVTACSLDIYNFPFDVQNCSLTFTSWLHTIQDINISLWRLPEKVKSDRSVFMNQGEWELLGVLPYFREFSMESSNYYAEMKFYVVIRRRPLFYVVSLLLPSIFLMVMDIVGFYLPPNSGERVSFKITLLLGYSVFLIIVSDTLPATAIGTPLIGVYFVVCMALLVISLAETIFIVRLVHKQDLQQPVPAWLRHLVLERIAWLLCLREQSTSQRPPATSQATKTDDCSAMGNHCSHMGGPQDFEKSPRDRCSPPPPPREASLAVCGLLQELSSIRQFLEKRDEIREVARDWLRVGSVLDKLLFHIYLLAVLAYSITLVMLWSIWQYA
Briefly: Inhibition of human 5HT3 expressed in COS7 cells at 10 uM.

Assay [4] addresses 5-hydroxytryptamine receptor 5A (Homo sapiens) (UniProt P47898). Briefly: Inhibition of human 5HT5A expressed in COS7 cells at 10 uM.
Assay [5] addresses 5-hydroxytryptamine receptor 6 (Homo sapiens) (UniProt P50406). In words: Inhibition of human 5HT6 expressed in COS7 cells at 10 uM.
Assay [6] deals with 5-hydroxytryptamine receptor 7 (Homo sapiens) (UniProt P34969). Briefly: Inhibition of human 5HT7 expressed in COS7 cells at 10 uM.
Assay [7] addresses 5-hydroxytryptamine receptor 1E (Homo sapiens) (UniProt P28566). In words: Inhibition of human 5HT1E expressed in COS7 cells at 10 uM.
Assay [8] addresses 5-hydroxytryptamine receptor 1B (Homo sapiens) (UniProt P28222). Briefly: Inhibition of human 5HT1B expressed in COS7 cells at 10 uM.
The target of assay [9] is 5-hydroxytryptamine receptor 2A (Rattus norvegicus) (UniProt P14842). In words: Inhibition of rat 5HT2A expressed in COS7 cells at 10 uM.
The target in assay [10] is T2, 5-hydroxytryptamine receptor 1A (Homo sapiens) (UniProt P08908).
T2 sequence (whole entry): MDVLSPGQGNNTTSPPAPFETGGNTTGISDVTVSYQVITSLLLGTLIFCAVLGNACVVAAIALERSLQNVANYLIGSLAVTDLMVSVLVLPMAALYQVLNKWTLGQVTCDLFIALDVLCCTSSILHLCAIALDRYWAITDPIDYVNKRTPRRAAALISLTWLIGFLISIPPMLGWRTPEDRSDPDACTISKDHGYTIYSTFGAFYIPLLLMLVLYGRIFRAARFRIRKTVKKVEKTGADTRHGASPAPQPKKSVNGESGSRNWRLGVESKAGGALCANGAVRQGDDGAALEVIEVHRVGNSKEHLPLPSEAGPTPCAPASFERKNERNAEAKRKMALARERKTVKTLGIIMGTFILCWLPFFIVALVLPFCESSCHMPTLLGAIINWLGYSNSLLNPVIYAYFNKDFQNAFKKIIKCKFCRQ
In words: Inhibition of human 5HT1A expressed in COS7 cells at 10 uM.

Assay [11] deals with T3, 5-hydroxytryptamine receptor 2C (Rattus norvegicus) (UniProt P08909).
T3 sequence (whole entry): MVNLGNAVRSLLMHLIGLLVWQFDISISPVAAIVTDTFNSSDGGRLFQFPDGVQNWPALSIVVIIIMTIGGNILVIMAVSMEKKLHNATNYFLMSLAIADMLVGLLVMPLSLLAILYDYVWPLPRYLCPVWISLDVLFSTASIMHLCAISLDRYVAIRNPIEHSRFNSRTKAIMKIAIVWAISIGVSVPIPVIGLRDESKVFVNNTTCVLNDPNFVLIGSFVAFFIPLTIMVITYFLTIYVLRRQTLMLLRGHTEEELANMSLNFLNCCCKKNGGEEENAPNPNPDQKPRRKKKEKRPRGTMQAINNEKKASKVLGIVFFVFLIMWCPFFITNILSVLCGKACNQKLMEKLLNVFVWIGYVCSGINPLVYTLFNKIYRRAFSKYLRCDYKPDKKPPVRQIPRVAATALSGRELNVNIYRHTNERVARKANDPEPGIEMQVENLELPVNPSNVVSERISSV
In words: Inhibition of rat 5HT2C expressed in COS7 cells at 10 uM.

For orientation: inhibition means the drop in the measured response relative to a control, in per cent.

Sequence of 5-hydroxytryptamine receptor 1E (Homo sapiens) (P28566 whole entry): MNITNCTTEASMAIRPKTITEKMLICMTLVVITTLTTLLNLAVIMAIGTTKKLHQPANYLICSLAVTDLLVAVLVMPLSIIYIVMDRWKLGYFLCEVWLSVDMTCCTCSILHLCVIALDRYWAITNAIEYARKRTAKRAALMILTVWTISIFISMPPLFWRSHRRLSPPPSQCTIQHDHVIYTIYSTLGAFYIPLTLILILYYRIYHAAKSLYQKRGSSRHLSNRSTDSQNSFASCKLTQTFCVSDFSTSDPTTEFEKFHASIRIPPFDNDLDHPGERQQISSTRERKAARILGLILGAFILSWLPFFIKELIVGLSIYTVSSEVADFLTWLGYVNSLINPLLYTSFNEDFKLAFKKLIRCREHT
Sequence of 5-hydroxytryptamine receptor 5A (Homo sapiens) (P47898 whole entry): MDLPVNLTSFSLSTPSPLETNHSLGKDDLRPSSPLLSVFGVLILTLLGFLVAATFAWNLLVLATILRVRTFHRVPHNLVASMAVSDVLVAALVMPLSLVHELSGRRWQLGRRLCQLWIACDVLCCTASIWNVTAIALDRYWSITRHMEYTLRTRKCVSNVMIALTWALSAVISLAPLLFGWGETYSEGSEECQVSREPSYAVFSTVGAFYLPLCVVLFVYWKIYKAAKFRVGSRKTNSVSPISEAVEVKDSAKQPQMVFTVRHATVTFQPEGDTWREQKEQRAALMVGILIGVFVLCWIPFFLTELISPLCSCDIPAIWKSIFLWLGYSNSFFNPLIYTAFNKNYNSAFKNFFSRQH
Sequence of 5-hydroxytryptamine receptor 7 (Homo sapiens) (P34969 whole entry): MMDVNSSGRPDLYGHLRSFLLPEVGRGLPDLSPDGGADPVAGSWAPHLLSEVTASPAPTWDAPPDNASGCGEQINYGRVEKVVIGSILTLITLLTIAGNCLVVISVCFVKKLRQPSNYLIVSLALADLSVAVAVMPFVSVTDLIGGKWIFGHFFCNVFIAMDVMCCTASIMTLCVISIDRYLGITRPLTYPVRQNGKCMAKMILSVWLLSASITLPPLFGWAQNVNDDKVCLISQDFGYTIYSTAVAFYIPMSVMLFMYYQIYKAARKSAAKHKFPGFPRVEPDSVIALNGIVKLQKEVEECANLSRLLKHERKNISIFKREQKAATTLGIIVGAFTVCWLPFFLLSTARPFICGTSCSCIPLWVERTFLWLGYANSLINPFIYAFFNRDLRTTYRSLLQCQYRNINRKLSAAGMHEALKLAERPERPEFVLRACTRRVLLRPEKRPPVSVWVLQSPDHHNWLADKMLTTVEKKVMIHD
Sequence of 5-hydroxytryptamine receptor 6 (Homo sapiens) (P50406 whole entry): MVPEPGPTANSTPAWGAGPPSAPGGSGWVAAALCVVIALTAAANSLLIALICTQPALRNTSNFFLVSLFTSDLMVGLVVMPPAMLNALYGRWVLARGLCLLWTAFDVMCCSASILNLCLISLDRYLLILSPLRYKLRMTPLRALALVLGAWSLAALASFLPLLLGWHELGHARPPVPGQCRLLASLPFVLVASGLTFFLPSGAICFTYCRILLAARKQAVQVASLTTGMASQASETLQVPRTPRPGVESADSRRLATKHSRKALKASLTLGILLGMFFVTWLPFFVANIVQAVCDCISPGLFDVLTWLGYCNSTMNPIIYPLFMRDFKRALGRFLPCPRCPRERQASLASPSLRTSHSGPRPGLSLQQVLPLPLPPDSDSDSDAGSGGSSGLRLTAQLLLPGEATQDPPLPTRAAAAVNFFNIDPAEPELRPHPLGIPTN
Sequence of 5-hydroxytryptamine receptor 1D (Homo sapiens) (P28221 whole entry): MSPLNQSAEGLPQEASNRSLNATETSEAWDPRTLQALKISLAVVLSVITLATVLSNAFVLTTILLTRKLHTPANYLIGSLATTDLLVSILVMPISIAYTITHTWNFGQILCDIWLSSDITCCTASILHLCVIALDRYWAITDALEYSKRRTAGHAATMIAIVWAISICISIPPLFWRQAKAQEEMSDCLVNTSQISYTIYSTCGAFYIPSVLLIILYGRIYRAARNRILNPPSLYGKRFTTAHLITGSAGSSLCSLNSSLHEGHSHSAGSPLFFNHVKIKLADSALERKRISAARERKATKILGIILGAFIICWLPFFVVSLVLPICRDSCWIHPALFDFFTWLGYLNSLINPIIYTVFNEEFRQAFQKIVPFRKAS
Sequence of 5-hydroxytryptamine receptor 2B (Homo sapiens) (P41595 whole entry): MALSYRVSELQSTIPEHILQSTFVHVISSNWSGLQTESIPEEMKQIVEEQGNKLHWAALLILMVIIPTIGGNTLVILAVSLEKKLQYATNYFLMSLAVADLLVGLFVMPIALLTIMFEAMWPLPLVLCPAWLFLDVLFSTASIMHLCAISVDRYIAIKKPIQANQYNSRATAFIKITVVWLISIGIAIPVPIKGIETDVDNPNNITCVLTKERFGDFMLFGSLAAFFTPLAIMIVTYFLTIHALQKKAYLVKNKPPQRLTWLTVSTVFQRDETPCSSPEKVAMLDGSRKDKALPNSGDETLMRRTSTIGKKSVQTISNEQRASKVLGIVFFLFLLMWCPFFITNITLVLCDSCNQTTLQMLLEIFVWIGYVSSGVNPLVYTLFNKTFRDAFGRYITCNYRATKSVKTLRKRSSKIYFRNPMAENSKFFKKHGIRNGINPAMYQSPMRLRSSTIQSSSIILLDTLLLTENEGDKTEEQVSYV
Sequence of 5-hydroxytryptamine receptor 2A (Rattus norvegicus) (P14842 whole entry): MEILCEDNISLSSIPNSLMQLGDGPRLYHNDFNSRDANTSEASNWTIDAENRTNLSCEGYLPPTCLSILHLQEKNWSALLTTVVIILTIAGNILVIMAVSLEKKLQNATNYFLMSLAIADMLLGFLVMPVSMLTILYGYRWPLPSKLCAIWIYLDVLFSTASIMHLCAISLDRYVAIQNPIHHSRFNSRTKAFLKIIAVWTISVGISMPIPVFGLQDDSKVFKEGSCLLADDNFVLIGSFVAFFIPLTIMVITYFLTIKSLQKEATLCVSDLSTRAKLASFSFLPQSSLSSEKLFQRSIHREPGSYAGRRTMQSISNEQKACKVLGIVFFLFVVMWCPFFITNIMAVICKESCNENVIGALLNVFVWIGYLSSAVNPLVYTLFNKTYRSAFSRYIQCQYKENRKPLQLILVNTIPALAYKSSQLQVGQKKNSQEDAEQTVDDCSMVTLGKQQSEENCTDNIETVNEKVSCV
Sequence of 5-hydroxytryptamine receptor 1B (Homo sapiens) (P28222 whole entry): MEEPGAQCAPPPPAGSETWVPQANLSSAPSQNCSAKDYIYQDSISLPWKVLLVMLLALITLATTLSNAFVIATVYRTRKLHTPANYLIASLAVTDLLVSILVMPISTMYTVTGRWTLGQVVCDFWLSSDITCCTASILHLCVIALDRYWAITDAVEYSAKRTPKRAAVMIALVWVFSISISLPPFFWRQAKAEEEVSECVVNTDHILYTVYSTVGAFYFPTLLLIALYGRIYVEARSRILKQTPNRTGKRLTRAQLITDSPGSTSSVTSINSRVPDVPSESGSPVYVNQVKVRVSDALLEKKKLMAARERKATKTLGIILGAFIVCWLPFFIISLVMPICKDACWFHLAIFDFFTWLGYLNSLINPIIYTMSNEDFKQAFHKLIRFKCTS

As for `CNCCC(Oc1ccc(S(F)(F)(F)(F)F)cc1)c1ccccc1` (stereo not drawn), the inhibition in assay [1] is 71.9%; in [2], 12.7%; in [3], 6.8%; in assay [4], 25%; in assay [5] it was 1.5%; in [6] it was 12%. In addition, the inhibition in assay [7] was 77.8%; in [8], 3.4%; in [9], 97.3%; in assay [10] it was -3%; in [11], 75.8%.

For the molecule `CCNC(C)Cc1cccc(S(F)(F)(F)(F)F)c1` (stereo not drawn), the inhibition in assay [1] worked out at 85.3%; in assay [2], 15.2%; in assay [3], 14.6%; in assay [4], 62.7%; in assay [5], 50%; in assay [6], 50%. The inhibition in assay [7] was 7.3%; in assay [8] it was 63.5%; in [9], 53.2%; in [10], 85.5%; in [11], 72.8%.

For `CC(N)Cc1cccc(S(F)(F)(F)(F)F)c1` (stereo not drawn), the inhibition in assay [1] was 89.6%; in assay [2], 73.7%; in assay [3], -6.1%; in assay [4] it was 31.3%; in assay [5] it was 50%; in [6], 50%. Also, the inhibition was found to be 23.4% in assay [7]; 62.9% in assay [8]; 85.9% in [9]; 50% in [10]; 94.6% in assay [11].
